In BigSolDB 2.1:

CSc1nc2cc(Oc3cccc(Cl)c3Cl)c(Cl)cc2[nH]1
solubility (mole fraction)
Conditions | 278.15 K | 283.15 K | 288.15 K | 293.15 K | 298.15 K | 303.15 K | 308.15 K | 313.15 K | 318.15 K
in 1,2-dichloroethane | 0.00153 | 0.00187 | 0.00234 | 0.00289 | 0.00365 | 0.00429 | 0.00522 | 0.0063 | 0.00759
in acetonitrile | 0.000629 | 0.000811 | 0.00106 | 0.00136 | 0.00164 | 0.00213 | 0.00264 | 0.0032 | 0.00396
in ethanol | 0.00727 | 0.00878 | 0.0105 | 0.0126 | 0.0151 | 0.0181 | 0.0209 | 0.0244 | 0.0288
in ethyl acetate | 0.0106 | 0.0125 | 0.0147 | 0.0173 | 0.0198 | 0.0232 | 0.0262 | 0.0306 | 0.0354
in ethyl formate | 0.00501 | 0.00632 | 0.00795 | 0.00982 | 0.0121 | 0.0149 | 0.0177 | 0.0215 | 0.0258
in ethylene glycol | 0.000323 | 0.000439 | 0.00057 | 0.000714 | 0.000934 | 0.0012 | 0.00152 | 0.00188 | 0.00231
in isobutanol | 0.00455 | 0.00558 | 0.00698 | 0.00859 | 0.0109 | 0.0132 | 0.0161 | 0.0194 | 0.023
in isopropanol | 0.00215 | 0.00272 | 0.00337 | 0.00411 | 0.00511 | 0.00619 | 0.00757 | 0.00914 | 0.0112
in methanol | 0.00373 | 0.00458 | 0.00565 | 0.00691 | 0.00841 | 0.0101 | 0.0121 | 0.0144 | 0.017
in n-butanol | 0.0221 | 0.0246 | 0.0273 | 0.0302 | 0.0333 | 0.0366 | 0.0399 | 0.0435 | 0.0473
in n-butyl acetate | 0.0159 | 0.0181 | 0.0207 | 0.0232 | 0.0263 | 0.0298 | 0.0334 | 0.0372 | 0.0423
in n-pentyl acetate | 0.0185 | 0.0214 | 0.0241 | 0.0277 | 0.0319 | 0.0361 | 0.0407 | 0.0453 | 0.0511
in n-propanol | 0.00915 | 0.0108 | 0.0125 | 0.0146 | 0.017 | 0.0198 | 0.0229 | 0.0262 | 0.0301
in n-propyl acetate | 0.0124 | 0.0146 | 0.017 | 0.0196 | 0.0228 | 0.0258 | 0.0299 | 0.0338 | 0.039
